≈ marks a conversion by molar mass, not a printed value. Like-named read-outs stand apart in the source and are kept apart here.
How the values were obtained:
Type in all cases: cell-based
[1] = tested on: E. coli ATCC 25922; experiment: MIC against E. coli ATCC 25922; conditions: Escherichia coli, ATCC25922
[2] = tested on: H. influenzae ATCC 49247; experiment: MIC against H. influenzae ATCC 49247; conditions: Haemophilus influenzae, ATCC49247
[3] = tested on: E. faecalis MMX 847 Macrolide-Resistant; experiment: MIC against E. faecalis MMX 847 Macrolide-Resistant; conditions: Enterococcus faecalis; E. faecalis MMX 847 Macrolide-Resistant (MacRes); read-out: MIC
[4] = tested on: E. faecalis ATCC 29212; experiment: MIC against E. faecalis ATCC 29212; conditions: Enterococcus faecalis
[5] = tested on: S. aureus BAA 977 iErmA; experiment: MIC against S. aureus BAA 977 iErmA; conditions: Staphylococcus aureus, BAA977
[6] = tested on: S. pyogenes MMX 946 Macrolide-Resistant; experiment: MIC against S. pyogenes MMX 946 Macrolide-Resistant; conditions: Streptococcus pyogenes; S. pyogenes MMX 946 Macrolide-Resistant (MacRes); read-out: MIC
[7] = tested on: S. aureus ATCC 29213; experiment: MIC against S. aureus ATCC 29213
[8] = tested on: S. aureus MMX 3035 cErmA; experiment: MIC against S. aureus MMX 3035 cErmA; conditions: Staphylococcus aureus, MMX3035CERMA; S. aureus MMX 3035 cErmA; read-out: MIC
[9] = tested on: S. pyogenes ATCC 19615; experiment: MIC against S. pyogenes ATCC 19615; conditions: Streptococcus pyogenes, ATCC19615; S. pyogenes ATCC 19615; read-out: MIC
[10] = tested on: S. aureus MP-549 msr(a) USA 300; experiment: MIC against S. aureus MP-549 msr(a) USA 300; conditions: Staphylococcus aureus, USA300, S. aureus MP-549 msr(a) USA 300
[11] = tested on: E. coli MP-9 ΔTolC; experiment: MIC against E. coli MP-9 ΔTolC; conditions: Escherichia coli
[12] = tested on: K. pneumoniae ATCC 10031; experiment: MIC against K. pneumoniae ATCC 10031; conditions: Klebsiella pneumoniae, ATCC10031
[13] = tested on: S. pneumoniae ATCC 49619; experiment: MIC against S. pneumoniae ATCC 49619; conditions: Streptococcus pneumoniae, ATCC49619
[14] = tested on: E. coli MP-74 LptD mutant; experiment: MIC against E. coli MP-74 LptD mutant; conditions: Escherichia coli
[15] = tested on: E. coli ATCC 15922; experiment: MIC against E. coli ATCC 15922; conditions: Escherichia coli, ATCC15922; E. coli ATCC 15922; read-out: MIC
[16] = E. coli ATCC 25922, read-out: MIC
[17] = H. influenzae ATCC 49247, read-out: MIC
[18] = Staphylococcus aureus, ATCC29213, S. aureus ATCC 29213, read-out: MIC
[19] = S. pneumoniae ATCC 49619, read-out: MIC
[20] = K. pneumoniae ATCC 10031, read-out: MIC
[21] = Staphylococcus aureus, ATCC29213

Structure (SMILES)	MIC [1, 16]	MIC ([4]; ATCC29212, read-out: MIC)	MIC [7, 18]	MIC [9]	MIC [10]	MIC [1]	MIC [11]	MIC [13, 19]	also measured
CSC1O[C@H]([C@H](NC(=O)[C@H]2NC[C@@H]3C=C(c4cc(F)cc(F)c4)CCO[C@@H]23)[C@H](C)Cl)C(O)[C@@H](O)[C@H]1O (some centres unmarked) [FSA-511074]	> 64 µg/mL	4 µg/mL (≈ 7.29 µM)	2 µg/mL (≈ 3.64 µM)	0.5 µg/mL (≈ 0.911 µM)	1 µg/mL (≈ 1.82 µM)	–	–	–	MIC [2, 17]: > 64 µg/mL; MIC [3]: > 64 µg/mL; MIC [5]: 2 µg/mL (≈ 3.64 µM); MIC [6]: > 64 µg/mL; MIC [8]: > 64 µg/mL
COc1ccc([C@@H]2CCO[C@@H]3[C@H](CN[C@@H]3C(=O)N[C@H]([C@H](C)Cl)[C@H]3OC(SC)[C@H](O)[C@H](O)C3O)C2)cc1 (some centres unmarked) [FSA-512080c]	–	–	–	–	–	–	–	–	MIC [2, 17]: 37 µg/mL (≈ 67.9 µM)
CSC1O[C@H]([C@H](NC(=O)[C@H]2NC[C@@H]3CC(c4cccc5cnccc45)=CCO[C@H]32)[C@H](C)Cl)C(O)[C@@H](O)[C@H]1O (some centres unmarked) [FSA-510006]	–	–	8 µg/mL (≈ 14.2 µM)	0.5 µg/mL (≈ 0.886 µM)	–	> 64 µg/mL	> 64 µg/mL	1 µg/mL (≈ 1.77 µM)	MIC [2]: > 64 µg/mL; MIC [12]: > 64 µg/mL
CSC1O[C@H]([C@H](NC(=O)[C@H]2NC[C@@H]3CC(c4ccc(C)cc4)=CCO[C@H]32)[C@H](C)Cl)C(O)[C@@H](O)[C@H]1O (some centres unmarked) [FSA-511019]	> 64 µg/mL	4 µg/mL (≈ 7.59 µM)	–	0.195 µg/mL (≈ 0.37 µM)	0.5 µg/mL (≈ 0.949 µM)	–	–	–	MIC [12, 20]: > 64 µg/mL; MIC [7, 21]: 0.5 µg/mL (≈ 0.949 µM)
CSC1O[C@H]([C@H](NC(=O)[C@H]2NC[C@@H]3C=C(C#Cc4cccc(F)c4)CCO[C@@H]23)[C@H](C)Cl)C(O)[C@@H](O)[C@H]1O (some centres unmarked) [FSA-510003]	–	1 µg/mL (≈ 1.8 µM)	0.5 µg/mL (≈ 0.901 µM)	–	–	> 64 µg/mL	> 64 µg/mL	–	–
CSC1O[C@H]([C@H](NC(=O)[C@H]2NC[C@@H]3CC(NCc4ccc(F)cc4)CCO[C@H]32)[C@H](C)Cl)C(O)[C@@H](O)[C@H]1O (some centres unmarked) [FSA-510074]	–	–	–	8 µg/mL (≈ 14.2 µM)	–	> 64 µg/mL	–	–	MIC [2]: > 64 µg/mL; MIC ([4]; ATCC29212): > 64 µg/mL; MIC [12]: > 64 µg/mL; MIC [14]: > 64 µg/mL
CSC1O[C@H]([C@H](NC(=O)[C@@H]2[C@@H]3OCC=CC[C@H]3CN2C2CC2)[C@H](C)Sc2ccc(-c3cccnc3)cc2)C(O)[C@@H](O)[C@H]1O (some centres unmarked) [FSA-214009a]	–	> 64 µg/mL	–	4 µg/mL (≈ 6.37 µM)	–	–	–	4 µg/mL (≈ 6.37 µM)	MIC [15]: > 64 µg/mL
CSC1O[C@H]([C@H](NC(=O)[C@H]2NC[C@@H]3C=C(c4ccc(F)cc4F)CCO[C@@H]23)[C@H](C)Cl)C(O)[C@@H](O)[C@H]1O (some centres unmarked) [FSA-511072]	> 64 µg/mL	4 µg/mL (≈ 7.29 µM)	1 µg/mL (≈ 1.82 µM)	0.95 µg/mL (≈ 1.73 µM)	1 µg/mL (≈ 1.82 µM)	–	–	–	MIC [2, 17]: > 64 µg/mL; MIC [3]: > 64 µg/mL; MIC [5]: 1 µg/mL (≈ 1.82 µM); MIC [6]: > 64 µg/mL; MIC [8]: > 64 µg/mL
CSC1O[C@H]([C@H](NC(=O)[C@H]2NC[C@@H]3C[C@@H](c4ccc(C#N)cc4)CCO[C@H]32)[C@H](C)Cl)C(O)[C@@H](O)[C@H]1O (some centres unmarked) [FSA-511046]	–	1 µg/mL (≈ 1.85 µM)	–	≤ 0.06 µg/mL	0.5 µg/mL (≈ 0.926 µM)	–	8 µg/mL (≈ 14.8 µM)	≤ 0.06 µg/mL	MIC [15]: > 64 µg/mL; MIC ([7]; S. aureus ATCC 29213): 1 µg/mL (≈ 1.85 µM)
COc1ccc(C2=CCO[C@@H]3[C@H](CN[C@@H]3C(=O)N[C@H]([C@H](C)Cl)[C@H]3OC(SC)[C@H](O)[C@H](O)C3O)C2)cc1 (some centres unmarked) [FSA-511020]	> 64 µg/mL	4 µg/mL (≈ 7.37 µM)	0.5 µg/mL (≈ 0.921 µM)	≤ 0.06 µg/mL	1 µg/mL (≈ 1.84 µM)	–	–	≤ 0.06 µg/mL	MIC [12, 20]: > 64 µg/mL
CSC1O[C@H]([C@H](NC(=O)[C@H]2NC[C@@H]3CC(NCc4cccc(F)c4)CCO[C@H]32)[C@H](C)Cl)C(O)[C@@H](O)[C@H]1O (some centres unmarked) [FSA-510073]	–	–	–	2 µg/mL (≈ 3.56 µM)	–	> 64 µg/mL	> 64 µg/mL	8 µg/mL (≈ 14.2 µM)	MIC [2]: > 64 µg/mL; MIC ([4]; ATCC29212): > 64 µg/mL; MIC [12]: > 64 µg/mL; MIC [14]: > 64 µg/mL
CCOC(=O)CCN1C[C@@H]2CC=CCO[C@H]2[C@H]1C(=O)N[C@H]([C@H](C)Sc1ccc(-c2cccnc2)cc1)[C@H]1OC(SC)[C@H](O)[C@H](O)C1O (some centres unmarked) [FSA-214009b]	> 64 µg/mL	> 64 µg/mL	≥ 64 µg/mL	8 µg/mL (≈ 11.6 µM)	–	–	–	–	–
CSC1O[C@H]([C@H](NC(=O)[C@H]2NC[C@@H]3CC(NCc4ccccc4F)CCO[C@H]32)[C@H](C)Cl)C(O)[C@@H](O)[C@H]1O (some centres unmarked) [FSA-510072]	–	–	–	8 µg/mL (≈ 14.2 µM)	–	> 64 µg/mL	> 64 µg/mL	32 µg/mL (≈ 56.9 µM)	MIC [2]: > 64 µg/mL; MIC ([4]; ATCC29212): > 64 µg/mL; MIC [12]: > 64 µg/mL; MIC [14]: > 64 µg/mL
CSC1O[C@H]([C@H](NC(=O)[C@H]2NC[C@@H]3C=C(C#Cc4ccccc4)CCO[C@@H]23)[C@H](C)Cl)C(O)[C@@H](O)[C@H]1O (some centres unmarked) [FSA-510002]	–	2 µg/mL (≈ 3.72 µM)	0.5 µg/mL (≈ 0.931 µM)	–	–	> 64 µg/mL	> 64 µg/mL	–	–
CSC1O[C@H]([C@H](NC(=O)[C@H]2NC[C@@H]3C[C@H](c4ccc(C)cc4)CCO[C@H]32)[C@H](C)Cl)C(O)[C@@H](O)[C@H]1O (some centres unmarked) [FSA-512079c]	> 128 µg/mL	2 µg/mL (≈ 3.78 µM)	–	≤ 0.12 µg/mL	0.5 µg/mL (≈ 0.945 µM)	–	8 µg/mL (≈ 15.1 µM)	–	MIC [7, 21]: 0.5 µg/mL (≈ 0.945 µM)
CSC1O[C@H]([C@H](NC(=O)[C@H]2NC[C@@H]3C[C@@H](c4ccc(C)cc4)CCO[C@H]32)[C@H](C)Cl)C(O)[C@@H](O)[C@H]1O (some centres unmarked) [FSA-512079b]	> 128 µg/mL	1 µg/mL (≈ 1.89 µM)	–	≤ 0.12 µg/mL	0.5 µg/mL (≈ 0.945 µM)	–	8 µg/mL (≈ 15.1 µM)	–	MIC [7, 21]: 0.5 µg/mL (≈ 0.945 µM)
CSC1O[C@H]([C@H](NC(=O)[C@H]2NC[C@@H]3CC(c4ccc(C)cc4)CCO[C@H]32)[C@H](C)Cl)C(O)[C@@H](O)[C@H]1O (some centres unmarked) [FSA-511044]	–	2 µg/mL (≈ 3.78 µM)	0.23 µg/mL (≈ 0.435 µM)	≤ 0.06 µg/mL	0.5 µg/mL (≈ 0.945 µM)	–	–	–	MIC [15]: > 64 µg/mL; MIC [13]: 0.5 µg/mL (≈ 0.945 µM)
CSC1O[C@H]([C@H](NC(=O)[C@H]2NC[C@@H]3CC(c4ccc(C#N)cc4)=CCO[C@H]32)[C@H](C)Cl)C(O)[C@@H](O)[C@H]1O (some centres unmarked) [FSA-511033]	> 64 µg/mL	2 µg/mL (≈ 3.72 µM)	0.5 µg/mL (≈ 0.929 µM)	≤ 0.06 µg/mL	1 µg/mL (≈ 1.86 µM)	–	–	≤ 0.06 µg/mL	–
CSC1O[C@H]([C@H](NC(=O)[C@H]2NC[C@@H]3C=C(c4ccc(C)cc4)CCO[C@@H]23)[C@H](C)Cl)C(O)[C@@H](O)[C@H]1O (some centres unmarked) [FSA-512075]	> 256 µg/mL	2 µg/mL (≈ 3.79 µM)	0.5 µg/mL (≈ 0.949 µM)	–	–	–	–	–	–
